Experimental data reported in the supplement of paper PMC9013687.

Experiments:
Danio rerio embryo [1] = system: Danio rerio embryo
Method: (§1)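 Zebrafish embryos (UFZ-OBI strain) were exposed from 2 hpf for 48 h (2 dpf) or 96 h (4 dpf) at 28 °C; spontaneous tail coiling was scored at 25 hpf. Morphological features from automated image analysis (FishInspector), heart rate and locomotor response were fitted with drc models. Quantal endpoints were dichotomised at 2.5 SD from controls and fitted with a log-logistic model; heart rate, pigmentation and STC were normalised to the replicate control mean. Betamethasone was tested as betamethasone dipropionate, diflorasone as diflorasone diacetate.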

Danio rerio embryo [2] = conditions: exposure time: 4 dpf
Method: as §1

Danio rerio embryo [3] = assay: EC50 Curvature_Increase
Method: as §1

Danio rerio embryo [4] = assay: EC50 Body length_Decrease
Method: as §1

Danio rerio embryo [5] = assay: EC50 Bladder size_Decrease; conditions: exposure time: 4 dpf
Method: as §1

Danio rerio embryo [6] = assay: EC50 Pericard size_Increase; conditions: exposure time: 4 dpf
Method: as §1

Danio rerio embryo [7] = assay: EC50 Yolk sac size_Increase; conditions: exposure time: 4 dpf
Method: as §1

Danio rerio embryo [8] = assay: EC50 Eye-jaw distance_Decrease; conditions: exposure time: 4 dpf
Method: as §1

Danio rerio embryo [9] = assay: EC50 Otolith-eye distance_Decrease; conditions: exposure time: 4 dpf
Method: as §1

Danio rerio embryo [10] = assay: EC10 LMR dark; higher = less potent; conditions: exposure time: 4 dpf
Method: as §1

Danio rerio embryo [11] = assay: EC20 LMR dark; higher = less potent; conditions: exposure time: 4 dpf
Method: as §1

Danio rerio embryo [12] = assay: EC20 Any effect; higher = less potent
Method: as §1

Danio rerio embryo [13] = assay: EC10 Any effect; higher = less potent
Method: as §1

Danio rerio embryo [14] = assay: EC10 Curvature_Increase; higher = less potent
Method: as §1

Danio rerio embryo [15] = assay: EC20 Curvature_Increase; higher = less potent
Method: as §1

Danio rerio embryo [16] = assay: EC20 Body length_Decrease; higher = less potent
Method: as §1

Danio rerio embryo [17] = assay: EC10 Body length_Decrease; higher = less potent
Method: as §1

Danio rerio embryo [18] = assay: EC10 Bladder size_Decrease; higher = less potent; conditions: exposure time: 4 dpf
Method: as §1

Danio rerio embryo [19] = assay: EC20 Bladder size_Decrease; higher = less potent; conditions: exposure time: 4 dpf
Method: as §1

Danio rerio embryo [20] = assay: EC20 Yolk sac size_Increase; higher = less potent; conditions: exposure time: 4 dpf
Method: as §1

Danio rerio embryo [21] = assay: EC20 Pericard size_Increase; higher = less potent; conditions: exposure time: 4 dpf
Method: as §1

Danio rerio embryo [22] = assay: EC10 Yolk sac size_Increase; higher = less potent; conditions: exposure time: 4 dpf
Method: as §1

Danio rerio embryo [23] = assay: EC10 Pericard size_Increase; higher = less potent; conditions: exposure time: 4 dpf
Method: as §1

Danio rerio embryo [24] = assay: EC20 Eye-jaw distance_Decrease; higher = less potent; conditions: exposure time: 4 dpf
Method: as §1

Danio rerio embryo [25] = assay: EC10 Eye-jaw distance_Decrease; higher = less potent; conditions: exposure time: 4 dpf
Method: as §1

Danio rerio embryo [26] = assay: EC20 Otolith-eye distance_Decrease; higher = less potent; conditions: exposure time: 4 dpf
Method: as §1

Danio rerio embryo [27] = assay: EC10 Otolith-eye distance_Decrease; higher = less potent; conditions: exposure time: 4 dpf
Method: as §1

Danio rerio embryo [28] = assay: spontaneous tail coiling frequency (coils/min/embryo); higher = more spontaneous movement; conditions: 25 hpf
Method: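 Spontaneous tail coilings of zebrafish embryos exposed from 2 hpf were recorded at 24-25 hpf in 1-min videos and detected by a KNIME workflow from grey-value variance. Betamethasone was tested as the dipropionate, diflorasone as the diacetate.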

C[Si](Cn1cncn1)(c1ccc(F)cc1)c1ccc(F)cc1 [Flusilazole]
EC50 Any effect (Danio rerio embryo [1]; exposure time: 2 dpf): 7.6 µM | EC50 Any effect (Danio rerio embryo [1]; exposure time: 4 dpf): 2.65 µM | EC50 STC decrease (Danio rerio embryo [1]; exposure time: 25 h): 8.34 µM | EC50 LMR dark (Danio rerio embryo [2]): 2.77 µM | EC50 Curvature Increase (Danio rerio embryo [3]; exposure time: 2 dpf): 9.58 µM | EC50 Curvature Increase (Danio rerio embryo [3]; exposure time: 4 dpf): 5.85 µM | EC50 Body length Decrease (Danio rerio embryo [4]; exposure time: 2 dpf): 10.3 µM | EC50 Body length Decrease (Danio rerio embryo [4]; exposure time: 4 dpf): 3.04 µM | EC50 Bladder size Decrease (Danio rerio embryo [5]): 2.14 µM | EC50 Pericard size Increase (Danio rerio embryo [6]): 6.51 µM | EC50 Yolk sac size Increase (Danio rerio embryo [7]): 10.1 µM | EC50 Eye-jaw distance Decrease (Danio rerio embryo [8]): 3.73 µM | EC50 Otolith-eye distance Decrease (Danio rerio embryo [9]): 5.51 µM | EC10 LMR dark (Danio rerio embryo [10]): 1.3 µM | EC20 LMR dark (Danio rerio embryo [11]): 1.72 µM | EC20 Any effect (Danio rerio embryo [12]; exposure time: 2 dpf): 6.04 µM | EC20 Any effect (Danio rerio embryo [12]; exposure time: 4 dpf): 1.92 µM | EC10 Any effect (Danio rerio embryo [13]; exposure time: 2 dpf): 5.28 µM | EC10 Any effect (Danio rerio embryo [13]; exposure time: 4 dpf): 1.6 µM | EC10 Curvature Increase (Danio rerio embryo [14]; exposure time: 2 dpf): 6.73 µM | EC10 Curvature Increase (Danio rerio embryo [14]; exposure time: 4 dpf): 2.07 µM | EC20 Curvature Increase (Danio rerio embryo [15]; exposure time: 2 dpf): 7.67 µM | EC20 Curvature Increase (Danio rerio embryo [15]; exposure time: 4 dpf): 3.03 µM | EC20 Body length Decrease (Danio rerio embryo [16]; exposure time: 2 dpf): 8.01 µM | EC20 Body length Decrease (Danio rerio embryo [16]; exposure time: 4 dpf): 2.55 µM | EC10 Body length Decrease (Danio rerio embryo [17]; exposure time: 2 dpf): 6.91 µM | EC10 Body length Decrease (Danio rerio embryo [17]; exposure time: 4 dpf): 2.31 µM | EC10 Bladder size Decrease (Danio rerio embryo [18]): 1.46 µM | EC20 Bladder size Decrease (Danio rerio embryo [19]): 1.69 µM | EC20 Yolk sac size Increase (Danio rerio embryo [20]): 5.53 µM | EC20 Pericard size Increase (Danio rerio embryo [21]): 5.53 µM | EC10 Yolk sac size Increase (Danio rerio embryo [22]): 3.89 µM | EC10 Pericard size Increase (Danio rerio embryo [23]): 5.02 µM | EC20 Eye-jaw distance Decrease (Danio rerio embryo [24]): 2.67 µM | EC10 Eye-jaw distance Decrease (Danio rerio embryo [25]): 2.2 µM | EC20 Otolith-eye distance Decrease (Danio rerio embryo [26]): 4.25 µM | EC10 Otolith-eye distance Decrease (Danio rerio embryo [27]): 3.65 µM | spontaneous tail coiling frequency (Danio rerio embryo [28]; 1.98167 µM): 2.65 | spontaneous tail coiling frequency (Danio rerio embryo [28]; 3.96335 µM): 1.93 | spontaneous tail coiling frequency (Danio rerio embryo [28]; 6.3 µM): 1.95 | spontaneous tail coiling frequency (Danio rerio embryo [28]; 7.92669 µM): 1.22 | spontaneous tail coiling frequency (Danio rerio embryo [28]; 9.4 µM): 1.84 | spontaneous tail coiling frequency (Danio rerio embryo [28]; 14.1 µM): 1.52 | spontaneous tail coiling frequency (Danio rerio embryo [28]; 15.8534 µM): 0 | spontaneous tail coiling frequency (Danio rerio embryo [28]; 21.1 µM): 0 | spontaneous tail coiling frequency (Danio rerio embryo [28]; 31.7 µM): 0 | spontaneous tail coiling frequency (Danio rerio embryo [28]; 31.7068 µM): 0 | spontaneous tail coiling frequency (Danio rerio embryo [28]; 47.6 µM): 0
